Measured values as given in patent US10570123B2 (SURFACE LOGIX, LLC, priority 2005, dated 2020).

Key:
[1] = biological target: ROCK2 (Homo sapiens (Human), UniProt O75116); assay: Inhibition of ROCK2; type: biochemical; conditions: FIG. 10 legend, qualitative
Description: Methods of determining kinase inhibition are well known in the art. For example, kinase activity of an enzyme and the inhibitory capacity of a test compound can be determined by measuring enzyme specific phosphorylation of a substrate. Commercial assays and kits can be employed. For example, kinase inhibition can be determined using an IMAP® assay (Molecular Devices). This assay method involves the use of a fluorescently-tagged peptide substrate. Phosphorylation of the tagged peptide by a kinase of interest promotes binding of the peptide to a trivalent metal-based nanoparticle via the specific, high affinity interaction between the phospho-group and the trivalent metal. Proximity to the nanoparticle results in increased fluorescence polarization. Inhibition of the kinase by a kinase inhibitor prevents phosphorylation of the substrate and thereby limits binding of the fluorescently-tagged substrate to the nanoparticle. […]
ROCK-II inhibitory activity can be measured using the ROCK-II Assay Kit (Molecular Devices, inc.; Sunnyvale, Calif.).
Inhibition of ROCK2 by various compounds was determined.
Inhibitory activity for Rho kinase was determined for examples of compounds of the present invention. […] For each of these compounds their inhibitory activity for both ROCK 1 and ROCK 2 was determined. […]

[2] = tested on: PKC; assay: Inhibition of PKC (FIG. 10 comparison); type: biochemical; conditions: FIG. 10 legend, qualitative

Sequence of ROCK2 (O75116 whole entry, species assumed): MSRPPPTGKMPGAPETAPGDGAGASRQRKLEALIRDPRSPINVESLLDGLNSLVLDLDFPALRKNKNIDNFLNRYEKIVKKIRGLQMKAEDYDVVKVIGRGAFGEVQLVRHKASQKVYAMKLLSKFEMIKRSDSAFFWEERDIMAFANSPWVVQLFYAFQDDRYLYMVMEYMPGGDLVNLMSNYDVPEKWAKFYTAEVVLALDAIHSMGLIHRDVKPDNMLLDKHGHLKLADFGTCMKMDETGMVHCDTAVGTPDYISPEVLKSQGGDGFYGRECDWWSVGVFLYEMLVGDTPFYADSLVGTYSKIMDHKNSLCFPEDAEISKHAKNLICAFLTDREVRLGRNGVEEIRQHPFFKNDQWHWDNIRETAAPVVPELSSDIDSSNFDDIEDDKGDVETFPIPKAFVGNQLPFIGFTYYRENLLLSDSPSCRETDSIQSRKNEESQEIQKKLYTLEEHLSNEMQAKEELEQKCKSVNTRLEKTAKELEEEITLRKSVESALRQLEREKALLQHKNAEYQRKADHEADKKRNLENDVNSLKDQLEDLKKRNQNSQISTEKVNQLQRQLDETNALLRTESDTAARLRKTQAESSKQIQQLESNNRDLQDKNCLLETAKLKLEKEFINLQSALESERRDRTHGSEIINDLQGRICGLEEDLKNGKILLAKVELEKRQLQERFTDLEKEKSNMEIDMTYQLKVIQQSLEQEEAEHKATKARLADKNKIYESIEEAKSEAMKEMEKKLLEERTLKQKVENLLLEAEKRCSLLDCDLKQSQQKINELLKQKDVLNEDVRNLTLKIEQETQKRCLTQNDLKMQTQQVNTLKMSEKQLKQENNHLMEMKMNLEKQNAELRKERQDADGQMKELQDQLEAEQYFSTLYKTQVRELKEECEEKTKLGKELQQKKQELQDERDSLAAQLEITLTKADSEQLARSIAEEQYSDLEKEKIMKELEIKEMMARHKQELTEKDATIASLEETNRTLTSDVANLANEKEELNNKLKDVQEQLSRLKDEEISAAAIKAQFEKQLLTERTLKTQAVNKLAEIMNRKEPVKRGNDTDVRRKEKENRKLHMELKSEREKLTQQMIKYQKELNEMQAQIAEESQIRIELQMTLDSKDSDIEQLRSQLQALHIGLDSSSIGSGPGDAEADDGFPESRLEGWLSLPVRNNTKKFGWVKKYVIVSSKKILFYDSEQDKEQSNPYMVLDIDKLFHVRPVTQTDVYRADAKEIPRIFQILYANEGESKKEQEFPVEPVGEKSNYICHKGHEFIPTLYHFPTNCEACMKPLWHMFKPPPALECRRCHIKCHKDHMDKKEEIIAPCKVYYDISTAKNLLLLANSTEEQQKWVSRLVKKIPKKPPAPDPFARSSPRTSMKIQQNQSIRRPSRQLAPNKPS

SMILES	inhibition of ROCK2 (FIG. 10) [1]	inhibition of PKC (FIG. 10) [2]
C[C@@H](N)[C@H]1CC[C@H](C(=O)Nc2ccncc2)CC1 [Example Y27632]	inhibits	inhibits
CC(C)NC(=O)COc1cccc(-c2nc(Nc3ccc4[nH]ncc4c3)c3ccccc3n2)c1 [Example 82, 2-(3-(4-(1H-indazol-5-ylamino)quinazolin-2-yl)phenoxy)-N-isopropylacetamide]	specific inhibition of ROCK2	–
